Test results: patent US8440830B2, “Tetrahydro-fused pyridines as histone deacetylase inhibitors” (4SC AG, priority 2007, dated 2013)
Like-named read-outs stand apart in the source and are kept apart here.

Legend:
A549 NSCLC cells [1] = assay: Cell cycle analysis by flow cytometry; format: cell-based, human; conditions: A549, 24 h treatment
Description: A549 NSCLC cells (ATTC CCL-185) are cultivated in DMEM with high glucose (supplemented with 10% FBS) at 5% CO2 and 37° C. in a humidified atmosphere under standard cell culture conditions. 24 h before compound treatment, cells are seeded at 5×10^4 cells/ml (=5×10^5 cells/10 cm cell culture dish) to allow logarithmic proliferation during the experiment. After 24 h, cells were treated with test compound or 0.5 vol % DMSO as a control. After 24 h and 48 h treatment, the culture medium is collected and detached, floating cells are collected by short centrifugation (5 min at 1200 rpm). Attached cells are washed once with 5 ml PBS, detached by treatment with 3 ml trypsin/EDTA solution (short incubation for 3-5 min) and—together with detached, floating cells—transferred into 15 ml Falcon tubes. The cell culture dish is washed with 10 ml DMEM to collect all remaining cells. After centrifugation for 5 min at 1200 rpm at room temperature, the supernatant is discarded and the cell pellet washed twice with 10 ml PBS. The supernatant is discarded, the cells resuspended in 4 ml ice-cold fixation solution (70 vol % ethanol, 30 vol % H2O; stored at −20° C.) and stored at −20° C. overnight. Next, 10 ml PBS (4° C.) is added to the cells, before centrifugation for 5 min at 1200 rpm (4° C.). The supernatant is discarded, the cell pellet washed once with 10 ml PBS (4° C.) and the cell pellet finally resuspended in about 1 ml staining solution (10 μg/ml RNAse A, 10 μg/ml propidiumiodide in PBS, final volume dependent on cell number). After incubation for 30 min at room temperature in the dark, cells are stored on ice and analyzed using the Becton Dickinson FACS Canto device. Analysis is done at an excitation of λ=488 nm with emission set as λ=600 nm.
Data analysis: Cells are analyzed according to size, granularity and propidiumiodide intensity. Size and granularity of cells are determined by measurement of forward scatter (FSC) and side scatter (SSC) of the λ=488 nm excitation light, respectively. To discriminate cells with 4N DNA content from cell doublets (two attached cells with 2N DNA content each), the ratio between the area under the propidiumiodide peak (PE-A) and the height of the propidiumiodide peak (PE-H) for each cell is determined. Cell doublets need more time to pass through the laser beam, which causes a broadening of the propidiumiodide peak and an increase of the ratio PE-A/PE-H. Using this analysis, cells in 4N and cell doublets appear as distinct clouds in a scatter plot and are excluded from the analysis. Thus, the area under the propidiumiodide peak at λ=600 nm (PE-A) is a measure for the DNA content of the cells. PE-A is blotted against the measured cell number in a histogram in order to determine the percentage of analyzed cells in an individual stage of the cell cycle.

A549 NSCLC cells [2] = assay: Cellular cytotoxicity assay (Alamar Blue), A549; format: cell-based; conditions: Homo sapiens, 72 h, upper end given as ≧100, read-out: IC50 (μM), cytotoxicity towards A549 NSCLC cells
Method in brief: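 Resazurin-to-resorufin fluorescence (ex 544, em 590 nm, after 4 h) gave viability as % of untreated cells following 72 h compound exposure at 37 °C. Compounds were added in semi-logarithmic dilutions 24 h post-seeding, quadruplicate wells; IC50 fitted by non-linear regression of concentration-effect curves.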

[3] = tested on: fully transformed malignant cancer cell lines; assay: Anti-proliferative activity, selection of cell lines (Alamar Blue); format: cell-based; conditions: Homo sapiens, 72 h, mean over cell lines, read-out: Mean IC50 values as calculated for fully malignant cancer cell lines
Description: (§1) The anti-proliferative activity of the histone deacetylase inhibitory compounds as described herein, is evaluated using the following cell lines: HeLa and HeLa-KB (cervical carcinoma), H460 (non small cell lung cancer), A549 (non-small cell lung cancer), MCF7 (breast carcinoma), MCF10A (normal, non tumorigenic breast epithelial), MDA-MB468 (breast carcinoma), MDA-MB435 (breast carcinoma), MDA-MB231 (breast carcinoma), SKBR-3 (breast carcinoma), SKOV-3 (ovarial carcinoma), A-2780 (ovarial carcinoma), RKO (colon carcinoma), HCT-15 (colon carcinoma), HCT-116 (colon carcinoma), PC3 (prostate carcinoma), BPH1 (benign prostate hyperplasia), AsPC1 (pancreatic carcinoma), Ca127 (tongue carcinoma), A-431 (vulva carcinoma), Hec1A (endometrial carcinoma), Saos-2 (osteosarcoma), U87MG (glioblastoma), WM266-4 (melanoma), K562 (chronic myeloid leukemia), EOL1 (acute hypereosinophilic myeloid leukemia), CCRF-CEM and CCRF-CEM VCR1000 (acute lymphoblastic leukemia sensitive and resistant towards Vincristine). For quantification of cellular proliferation/living cells the Alamar Blue (Resazurin) cell viability assay is applied (O'Brien et al. Eur J Biochem 267, 5421-5426, 2000). In this assay Resazurin is reduced to the fluorescent resorufine by cellular dehydrogenase activity, correlating with viable, proliferating cells. The examples are dissolved as 20 mM solutions in dimethylsulfoxide (DMSO) and subsequently diluted in semi-logarithmic steps. Cell lines are seeded at respective density into 96 well flat bottom plates in a volume of 200 μl per well. 24 h after seeding 1 μl each of the compound dilutions are added into each well of the 96 well plate. Each compound dilution is tested as quadruplicates. Wells containing untreated control cells are filled with 200 μl DMEM medium containing 0.5% v:v DMSO. The cells are then incubated with the compounds for 72 h at 37° C. in a humidified atmosphere containing 5% carbon dioxide. To determine the viability of the cells, 20 μl of a Resazurin solution (Sigma; 90 mg/l) are added. After 4 h incubation at 37° C. the fluorescence is measured at an extinction of λ=544 nm and an emission of λ=590 nm. For the calculation of the cell viability the emission value from untreated cells is set as 100% viability and the emission rates of treated cells are set in relation to the values of untreated cells. Viabilities are expressed as % values. The corresponding IC50 values of the compounds for cytotoxic activity are determined from the concentration-effect curves by means of non-linear regression.
The anti-proliferative activity of compounds from examples 1, 2, 3, 12 and 150 is evaluated by using a broad selection of non-malignant cell lines and fully transformed malignant cancer cell lines.

[4] = tested on: RKO colon carcinoma cells with conditional p21^waf1 expression; assay: Cell cycle dependent cytotoxicity, RKO exop21 cell system; format: cell-based; conditions: Homo sapiens, 72 h
Description: as §1
For determination of cell-cycle dependent cytotoxicity, the RKO exop21 cell system is applied (Schmidt et al. Oncogene 19: 2423-2429, 2000). Briefly, RKO cells with/without p21^waf1 expression (2×10^4 cells/well induced, 6×10^3 cells/well not induced) are treated with the compounds for 72 h and metabolic activity quantified as described before. The expression of p21^waf1 was induced by treatment with Pronasterone A, causing a complete proliferation arrest of RKO cells in the G1 and G2 phases of the cell division cycle.

[5] = RKO arrested, p21^waf1 expressed, read-out: RKO arrested (p21^waf1 expressed) IC50
[6] = RKO proliferating, p21^waf1 not induced, read-out: RKO proliferating IC50

| Compound | concentration inducing arrest in G1, depletion of cells in the S-phase and reduction of cells in the G2/M-phase (A549 NSCLC cells [1]) | IC50 (A549 NSCLC cells [2]) [µM] | IC50 [3] [nM] | IC50 [4, 5] [nM] | IC50 [4, 6] [nM] |
| --- | --- | --- | --- | --- | --- |
| Nc1ccccc1NC(=O)c1nc2c(s1)CN(C(=O)Nc1ccc(-c3ccccc3)cc1)CC2 [Example 1, N^2-(2-aminophenyl)-N5-biphenyl-4-yl-6,7-dihydro[1,3]thiazolo[5,4-c]pyridine-2,5(4H)-dicarboxamide] | around 3 μM | ≥ 0.2 | 2400 to 5400 | 1100 to 4900 | 1100 to 4000 |
| CN(C)c1ccc(NC(=O)N2CCc3nc(C(=O)Nc4ccccc4N)sc3C2)cc1 [Example 2, N^2-(2-aminophenyl)-N5-[4-(dimethylamino)phenyl]-6,7-dihydro[1,3]thiazolo[5,4-c]pyridine-2,5(4H)-dicarboxamide] | around 3 μM | ≥ 0.2 | 2400 to 5400 | 1100 to 4900 | 1100 to 4000 |
| COc1ccc(NC(=O)N2CCc3nc(C(=O)Nc4ccccc4N)sc3C2)cc1 [Example 3, N^2-(2-aminophenyl)-N5-(4-methoxyphenyl)-6,7-dihydro[1,3]thiazolo[5,4-c]pyridine-2,5(4H)-dicarboxamide] | around 3 μM | ≥ 0.2 | 2400 to 5400 | 1100 to 4900 | 1100 to 4000 |
| Nc1ccccc1NC(=O)c1nc2c(s1)CN(C(=O)Nc1cnc3ccccc3c1)CC2 [Example 12, N^2-(2-aminophenyl)-N5-quinolin-3-yl-6,7-dihydro[1,3]thiazolo[5,4-c]pyridine-2,5(4H)-dicarboxamide] | around 3 μM | ≥ 0.2 | 2400 to 5400 | 1100 to 4900 | 1100 to 4000 |
